Test results from a melting point compilation (Tetko et al.; mined from patent text by program, amines drawn as free bases though some values may be those of a salt).

| SMILES | melting point [°C] |
| --- | --- |
| O=C(CCCCCCC(=O)N1CCN(CCc2ccc3ccccc3c2)CC1)NO | 118 to 120 |
| Cc1cccc(NC(=O)N(C)Cc2cccc3c2C(=O)N(C2CCC(=O)NC2=O)C3=O)c1 (stereo not drawn) | 212 to 215 |
| COc1ccc(-c2ccc(C(=O)NCCOc3ccc(CC(Oc4ccc(C(C)C)cc4)C(=O)O)cc3)cc2)cc1 (stereo not drawn) | 159 to 160 |
| COc1ccc(OCCCCBr)c(C2Sc3cc(Cl)ccc3N(C)C2=O)c1 (stereo not drawn) | 106 to 107 |
| N#Cc1cccc(-c2nc(-c3ccc(C(N)=O)cc3)cc3cccnc23)c1 | 237 to 240 |
| CCCCCCCCCCCC(=O)OC1CC(c2ccccc2)NC(c2ccccc2)C1 (stereo not drawn) | 40 to 42 |
| CN1C(=O)[C@H](NC(=O)CCCc2ccccc2)N=C(c2ccccc2)c2ccccc21 | 65 to 74 |
| COC(=O)c1cc(C(=O)NCC(C)C)c2cc(Cc3ccc(F)cc3)cnc2c1O | 178 to 179 |
| CS(=O)(=O)Nc1cccc(-c2cccc(-c3nc(-c4ccc(C(F)(F)F)cc4)cc(C(F)(F)F)n3)c2)c1 | 191 |
| O=C(N[C@@H](CSC(=O)OCc1ccccc1)C(=O)O)OCc1ccccc1 | 93 to 94 |
| c1ccc(-c2nc3cc(-c4nc(COc5ccc(CCCn6ccnc6)cc5)co4)ccc3o2)cc1 | 166 to 167 |
| CCCC(Cl)COC(=O)c1ccc(-c2ccc(-c3ccc(C(=O)OCC(Cl)CCC)cc3)cc2)cc1 (stereo not drawn) | 129 to 131 |
| CCOC(=O)c1cn(-c2cc(N)c(F)cc2F)c2c(OC)c(F)c(F)cc2c1=O | 159 to 162 |
| COc1ccc2c(c1)C(c1ccc(N)cc1)=Nn1c(nc(C)c1C)C2 | 280 |
| CCNC(=O)Oc1cc2c(cc1Cl)CCN(C)C[C@H]2c1ccccc1 | 133 to 134 |
| CC1=C(c2cccc(C(F)(F)F)c2)n2ncc(C#N)c2N(C(=O)CCl)C1 | 178 to 182 |
| Cc1c(CC(=O)OCCO)cc(-c2ccc(S(C)(=O)=O)cc2)n1-c1ccc(F)cc1 | 129 to 131 |
| CC(C)CC1(C(C)C(=O)NO)CCN(CCc2ccccc2)C1=O (stereo not drawn) | 107 to 108 |
| O=[N+]([O-])c1cc2c(Cl)ncnc2s1 | 112 |
| COc1ccc(C(=O)c2ccccc2F)c(O)c1Cl | 132 to 133 |
| Cc1cc(-n2nc(C(F)(F)F)cc2-c2ccc(-c3ccco3)cc2)ccc1S(N)(=O)=O | 137 |
| CC(C)(C)OC(=O)Nc1ccsc1C(=O)O | 168 to 169 |
| CCc1nn(C2CCCC2)c2cc(C(=O)N(C)c3c(Cl)cncc3Cl)ccc12 | 118 to 119 |
| COc1ccc(S(=O)(=O)c2cnc(C)nc2Cc2c(C)cc(C)cc2C)cc1 | 150 to 152 |

| SMILES | melting point [°C] |
| --- | --- |
| Cc1nc2cc(NC(=O)c3cc4cc(F)ncc4n3Cc3cccc(F)c3)ccc2n1C | 245 to 247 |
| CCOC(=O)CN1C(=O)c2cccc3c(Cl)ccc1c23 | 138 to 140 |
| C[C@H](NC(=O)c1cccnc1Oc1ccc(F)cc1)c1cccs1 | 59 to 61 |
| COC(=O)c1ccccc1NC(=O)N(C)C | 85 to 90 |
| Cn1c(=O)cc(-c2cccc(Cl)c2)c2cc(C(O)(c3ccc(Cl)cc3)c3cnccc3N)ccc21 (stereo not drawn) | 262 |
| CC(C)(C)C(=O)NC(=O)N1CC1C#N (stereo not drawn) | 136 to 138 |
| CC(=O)Nn1c(=S)[nH]c2cc(C(F)(F)F)ccc21 | 294 to 295 |
| NCCNc1ccc2[nH]ncc2c1 | 150 to 165 |
| Cc1cc(C(=O)O)ccc1Sc1cc2c(cc1C)C(C)(C)CCC2(C)C | 217 to 218 |
| O=C(O)c1ccc(-c2ccc3nnn(Cc4ccc5ncccc5c4)c3n2)cc1F | 254 to 257 |
| Cn1nc(N=Cc2ccccc2)nc1NCC(O)COc1cccc(CN2CCCCC2)c1 (stereo not drawn) | 53 to 57 |
| O=c1[nH]c(N2CCC(N3CCCCC3)CC2)cc2ccccc12 | > 200 |
| CN1CCN(C(=O)Cn2nnnc2S)CC1 | > 250 |
| CCOC(=O)C(=CNc1ccc(F)c(N2CCN(C(C)=O)CC2)n1)C(=O)OCC | 164 to 165 |
| O=C(c1ccccc1)C(O)C1OC(n2ccc(=O)[nH]c2=O)C(O)(C(=O)c2ccccc2)C1(O)C(=O)c1ccccc1 (stereo not drawn) | 119 to 120 |
| COc1ccc(CNc2nc(SC)ncc2CO)cc1Cl | 159 to 160 |
| OCCSSc1nc2ccccc2s1 | 65 to 68 |
| O=C(c1cc(C(F)(F)F)cc(C(F)(F)F)c1)N1CCC(N2CCN(Cc3ccccc3)CC2)CC1Cc1ccccc1 (stereo not drawn) | 144 |
| CN1C(=O)CN(C(=O)c2ccccc2)N(c2cc(Cl)c(C(C#N)c3ccc(Cl)cc3)c(Cl)c2)C1=O (stereo not drawn) | 148 |
| OCc1cccc2oc3c(c12)CCCC3 | 43 to 45 |
| CCOC(=O)[C@@](CC)(CCCNCCc1c[nH]c2ccc(F)cc12)C(OCC)OCC | 100 |
| COc1ccc2c(c1)CCC1(CCCCN1C(=O)C(F)(F)F)C2 (stereo not drawn) | 75 to 76 |
| Nc1nc2c(sc(=O)n2C2OC(CO)C(O)C2F)c(=O)[nH]1 (stereo not drawn) | 232 to 234 |
| CN1CCN(Cc2nnc(-c3ccccc3)cc2-c2cccc([N+](=O)[O-])c2)CC1 | 157 to 159 |
